According to ChEMBL document CHEMBL1201862, “PubChem BioAssay data set” (2004):
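Following 48 hours of exposure in 96-well plates, responses at five concentrations were used to interpolate endpoints linearly. At the GI50, growth is halved.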 Calls of active or inactive are those of the source. Rule as the data show it: active = GI50 up to about 1.1 µM and inactive = higher.

What was measured:
Test in all cases: DTP human tumour cell line panel, 48 h
786-0 = system: 786-0
A498 = system: A498
A549 = system: A549
ACHN = system: ACHN
BT-549 = system: BT-549
CAKI-1 = system: CAKI-1
CCRF-CEM = system: CCRF-CEM
COLO 205 = system: COLO 205
DU-145 = system: DU-145
EKVX = system: EKVX
HCC 2998 = system: HCC 2998
HCT-116 = system: HCT-116
HCT-15 = system: HCT-15
HOP-62 = system: HOP-62
HT-29 = system: HT-29
Hs-578T = system: Hs-578T
IGROV-1 = system: IGROV-1
K562 = system: K562
KM12 = system: KM12
M14 = system: M14
MCF7 = system: MCF7
MDA-MB-231 = system: MDA-MB-231
MDA-MB-435 = system: MDA-MB-435
MDA-N = system: MDA-N
MOLT-4 = system: MOLT-4
Malme-3M = system: Malme-3M
NCI-H226 = system: NCI-H226
NCI-H23 = system: NCI-H23
NCI-H460 = system: NCI-H460
NCI-H522 = system: NCI-H522
NCI/ADR-RES = system: NCI/ADR-RES
OVCAR-3 = system: OVCAR-3
OVCAR-4 = system: OVCAR-4
OVCAR-5 = system: OVCAR-5
OVCAR-8 = system: OVCAR-8
PC-3 = system: PC-3
RPMI-8226 = system: RPMI-8226
RXF 393 = system: RXF 393
SF-268 = system: SF-268
SF-295 = system: SF-295
SK-MEL-28 = system: SK-MEL-28
SK-MEL-2 = system: SK-MEL-2
SK-MEL-5 = system: SK-MEL-5
SK-OV-3 = system: SK-OV-3
SN12C = system: SN12C
SNB-19 = system: SNB-19
SNB-75 = system: SNB-75
SW-620 = system: SW-620
T47D = system: T47D
TK-10 = system: TK-10
U-251 = system: U-251
UACC-257 = system: UACC-257
UACC-62 = system: UACC-62
UO-31 = system: UO-31
HL-60 = system: HL-60
HOP-92 = system: HOP-92
LOX IMVI = system: LOX IMVI
SF-539 = system: SF-539

COc1cccc2c1CCc1sc(CN3CCN(C)CC3)nc1-2
GI50 (786-0): 78.5 µM (inactive) | GI50 (A498): 26.7 µM (inactive) | GI50 (A549): > 100 µM (inactive) | GI50 (ACHN): > 100 µM (inactive) | GI50 (BT-549): > 100 µM (inactive) | GI50 (CAKI-1): > 100 µM (inactive) | GI50 (CCRF-CEM): 24.9 µM (inactive) | GI50 (COLO 205): 61.2 µM (inactive) | GI50 (DU-145): > 100 µM (inactive) | GI50 (EKVX): > 100 µM (inactive) | GI50 (HCC 2998): 49.4 µM (inactive) | GI50 (HCT-116): 57.7 µM (inactive) | GI50 (HCT-15): 83.6 µM | GI50 (HOP-62): > 100 µM (inactive) | GI50 (HT-29): 20.4 µM (inactive) | GI50 (Hs-578T): > 100 µM (inactive) | GI50 (IGROV-1): > 100 µM (inactive) | GI50 (K562): 31.4 µM (inactive) | GI50 (KM12): 80.2 µM (inactive) | GI50 (M14): 51.1 µM (inactive) | GI50 (MCF7): 26.4 µM (inactive) | GI50 (MDA-MB-231): 85.7 µM (inactive) | GI50 (MDA-MB-435): 63.5 µM (inactive) | GI50 (MDA-N): 55.5 µM (inactive) | GI50 (MOLT-4): 22.4 µM (inactive) | GI50 (Malme-3M): > 100 µM (inactive) | GI50 (NCI-H226): 59.8 µM (inactive) | GI50 (NCI-H23): 84.7 µM (inactive) | GI50 (NCI-H460): 54.7 µM (inactive) | GI50 (NCI-H522): 52.2 µM (inactive) | GI50 (NCI/ADR-RES): > 100 µM (inactive) | GI50 (OVCAR-3): > 100 µM (inactive) | GI50 (OVCAR-4): > 100 µM (inactive) | GI50 (OVCAR-5): > 100 µM (inactive) | GI50 (OVCAR-8): > 100 µM (inactive) | GI50 (PC-3): 44.8 µM (inactive) | GI50 (RPMI-8226): 30.1 µM (inactive) | GI50 (RXF 393): 6.84 µM (inactive) | GI50 (SF-268): > 100 µM (inactive) | GI50 (SF-295): 53 µM (inactive) | GI50 (SK-MEL-28): 49.7 µM (inactive) | GI50 (SK-MEL-2): > 100 µM (inactive) | GI50 (SK-MEL-5): 28.1 µM (inactive) | GI50 (SK-OV-3): > 100 µM (inactive) | GI50 (SN12C): > 100 µM (inactive) | GI50 (SNB-19): > 100 µM (inactive) | GI50 (SNB-75): > 100 µM (inactive) | GI50 (SW-620): > 100 µM (inactive) | GI50 (T47D): 33.8 µM (inactive) | GI50 (TK-10): > 100 µM (inactive) | GI50 (U-251): > 100 µM (inactive) | GI50 (UACC-257): > 100 µM (inactive) | GI50 (UACC-62): 26.2 µM (inactive) | GI50 (UO-31): > 100 µM (inactive)

COc1cc([C@@H]2c3cc4c(cc3[C@H](OC3OC5COC(c6ccco6)OC5C(O)C3O)C3COC(=O)[C@@H]32)OCO4)cc(OC)c1OC (some centres not stated)
GI50 (786-0): 3.3 µM (inactive) | GI50 (A498): 2.29 µM (inactive) | GI50 (A549): 3.79 µM (inactive) | GI50 (ACHN): 4.6 µM (inactive) | GI50 (BT-549): 3.21 µM (inactive) | GI50 (CAKI-1): 5.35 µM (inactive) | GI50 (COLO 205): 4.06 µM (inactive) | GI50 (DU-145): 3.15 µM (inactive) | GI50 (HCC 2998): 4 µM (inactive) | GI50 (HCT-116): 3.27 µM (inactive) | GI50 (HCT-15): 3.2 µM | GI50 (HL-60): 4.05 µM (inactive) | GI50 (HOP-62): 7.89 µM (inactive) | GI50 (HOP-92): 9.93 µM (inactive) | GI50 (HT-29): 2.8 µM (inactive) | GI50 (Hs-578T): 5.01 µM (inactive) | GI50 (IGROV-1): 3.56 µM (inactive) | GI50 (KM12): 4.48 µM (inactive) | GI50 (LOX IMVI): 4.06 µM (inactive) | GI50 (M14): 4.44 µM (inactive) | GI50 (MCF7): 3.85 µM (inactive) | GI50 (MDA-MB-231): 4.43 µM (inactive) | GI50 (MDA-MB-435): 3.59 µM (inactive) | GI50 (MDA-N): 2.04 µM (inactive) | GI50 (Malme-3M): 22.3 µM (inactive) | GI50 (NCI-H226): 4.17 µM (inactive) | GI50 (NCI-H23): 3.56 µM (inactive) | GI50 (NCI-H460): 2.16 µM (inactive) | GI50 (NCI-H522): 8.34 µM (inactive) | GI50 (NCI/ADR-RES): 9.93 µM (inactive) | GI50 (OVCAR-3): 3.21 µM (inactive) | GI50 (OVCAR-4): 41.6 µM (inactive) | GI50 (OVCAR-5): 7.66 µM (inactive) | GI50 (OVCAR-8): 14.2 µM (inactive) | GI50 (PC-3): 3.48 µM (inactive) | GI50 (RPMI-8226): 7.01 µM (inactive) | GI50 (RXF 393): 2.82 µM (inactive) | GI50 (SF-268): 8.2 µM (inactive) | GI50 (SF-295): 3.67 µM (inactive) | GI50 (SF-539): 2.74 µM (inactive) | GI50 (SK-MEL-2): 9.31 µM (inactive) | GI50 (SK-MEL-5): 4.21 µM (inactive) | GI50 (SK-OV-3): > 19.9 µM (inactive) | GI50 (SNB-19): 3.9 µM (inactive) | GI50 (SNB-75): > 100 µM (inactive) | GI50 (SW-620): 3.5 µM (inactive) | GI50 (T47D): 13.4 µM (inactive) | GI50 (TK-10): > 100 µM (inactive) | GI50 (U-251): 3.18 µM (inactive) | GI50 (UACC-257): 5.24 µM (inactive) | GI50 (UACC-62): 4.73 µM (inactive) | GI50 (UO-31): 25.9 µM (inactive)

COc1cc(/C=C2\N=C(c3ccccc3)N(c3ccc(C(=O)c4ccccc4)cc3N3C(=O)/C(=C/c4cc(OC)c(OC)c(OC)c4)N=C3c3ccccc3)C2=O)cc(OC)c1OC
GI50 (786-0): 16.8 µM (inactive) | GI50 (A498): 12 µM (inactive) | GI50 (A549): 13.7 µM (inactive) | GI50 (ACHN): 22.6 µM (inactive) | GI50 (BT-549): 14.4 µM (inactive) | GI50 (CAKI-1): 22.2 µM (inactive) | GI50 (CCRF-CEM): 5.31 µM (inactive) | GI50 (COLO 205): 16.4 µM (inactive) | GI50 (DU-145): 14.5 µM (inactive) | GI50 (EKVX): 24.8 µM (inactive) | GI50 (HCC 2998): 2.94 µM (inactive) | GI50 (HCT-116): 10.6 µM (inactive) | GI50 (HCT-15): 5.62 µM | GI50 (HL-60): 4.05 µM (inactive) | GI50 (HOP-62): 20.7 µM (inactive) | GI50 (HOP-92): 47.2 µM (inactive) | GI50 (HT-29): 29.1 µM (inactive) | GI50 (Hs-578T): 17.9 µM (inactive) | GI50 (IGROV-1): 15.7 µM (inactive) | GI50 (K562): 4.86 µM (inactive) | GI50 (KM12): 13.2 µM (inactive) | GI50 (LOX IMVI): 14.3 µM (inactive) | GI50 (M14): 12.1 µM (inactive) | GI50 (MCF7): 12.6 µM (inactive) | GI50 (MDA-MB-231): 16.9 µM (inactive) | GI50 (MDA-MB-435): 2.85 µM (inactive) | GI50 (MDA-N): 2.73 µM (inactive) | GI50 (MOLT-4): 4.97 µM (inactive) | GI50 (Malme-3M): 13.8 µM (inactive) | GI50 (NCI-H23): 17.1 µM (inactive) | GI50 (NCI-H460): 8.49 µM (inactive) | GI50 (NCI-H522): 4.65 µM (inactive) | GI50 (NCI/ADR-RES): 7.8 µM (inactive) | GI50 (OVCAR-3): 2.08 µM (inactive) | GI50 (OVCAR-4): 21.8 µM (inactive) | GI50 (OVCAR-5): 30.8 µM (inactive) | GI50 (OVCAR-8): 19.9 µM (inactive) | GI50 (PC-3): 12.6 µM (inactive) | GI50 (RPMI-8226): 9.73 µM (inactive) | GI50 (RXF 393): 11.2 µM (inactive) | GI50 (SF-268): 20.3 µM (inactive) | GI50 (SF-295): 11.7 µM (inactive) | GI50 (SK-MEL-28): 18.7 µM (inactive) | GI50 (SK-MEL-2): 9.77 µM (inactive) | GI50 (SK-MEL-5): 9.33 µM (inactive) | GI50 (SK-OV-3): 13.3 µM (inactive) | GI50 (SN12C): 23.1 µM (inactive) | GI50 (SNB-19): 25.6 µM (inactive) | GI50 (SNB-75): 7.36 µM (inactive) | GI50 (SW-620): 7.57 µM (inactive) | GI50 (T47D): 4.93 µM (inactive) | GI50 (TK-10): 16.8 µM (inactive) | GI50 (U-251): 18.7 µM (inactive) | GI50 (UACC-257): 15.2 µM (inactive) | GI50 (UACC-62): 9.48 µM (inactive) | GI50 (UO-31): 16 µM (inactive)
